This is an account of results in patent publication US5116981A, “Antiinflammatory leukotriene B4 analogs” (The Upjohn Company, priority 1989, dated 1992).

Series [1] can be described thus: stability of the isolated product on storage. Format: physicochemical. The settings on record: for stability in solution: methanol solution; for stability of the neat isolated product: as isolated oil.
Series [2] concerns chemotactic response of equimolar concentrations of LTB4. To be noted: cited from earlier work.
A further series has as its system neutrophil. To be noted: cited from earlier work.

As to `CCCCC/C=C\CC(O)C#Cc1cccc(CC(O)CCCC(=O)O)c1` (stereo not shown) [Example 24, Benzenehexanoic acid, delta-hydroxy-3-[(3-hydroxy-5-undecen-1-ynyl)]], the stability in solution entry in series [1] is “stable as a methanol solution”. In the case of `CCCCC/C=C\CC(O)/C=C/c1cccc(CC(O)CCCC(=O)O)n1` (stereo not shown) [Example 35, 2-Pyridinehexanoic acid, delta-hydroxy-6-(3-hydroxy-1,5-undecadienyl) -], in series [1], the “stability of the neat isolated product” value is “unstable oil” and the stability in solution result is “stable methanol solution”.

Turning to `CCCCC/C=C\CC(O)C#Cc1cccc(CC(O)CCCC(=O)O)n1` (stereo not shown) [Example 36, 2-Pyridinehexanoic acid, delta-hydroxy-6-(3-hydroxy-5-undecen-1-ynyl)-], the “stability of the neat isolated product” value in series [1] was “unstable pale oil”. `CCCCC/C=C\C[C@H](/C=C/C=C/C=C\[C@H](CCCC(=O)O)OC(C)=O)OC(C)=O` [LTB4 diacetate]: the “inhibition of chemotactic response to LTB4” value in series [2] is “competitively inhibit chemotactic response”. As to `CCCCCC=CCC(O)C=CC=CC=CC(O)CCCC(=O)N(C)C` (stereo not shown) [dimethylamide of LTB4], in the series with neutrophil (at the concentrations that inhibit degranulation), the agonist activity result was “no appreciable agonist activity”. The “inhibition of neutrophil degranulation induced by LTB4” value in the series on neutrophil is reported as “inhibit neutrophil degranulation induced by LTB4”.
